Experimental findings from patent US20200216492A1, “USE OF C-TERMINALLY EXTENDED PEPTIDES TO DISRUPT INHIBITOR NK CELL RECEPTOR INTERACTIONS WITH MHC I” (La Jolla Institute for Allergy and Immunology, priority 2016, published 2020) are described below.

One experiment has as its target KIR2DL1-Fc. As to the kind of experiment: KIR2DL1-Fc binding to immobilized HLA-peptide complexes by BLI (Octet RED96). Particulars: 2 μM KIR2DL1-Fc, biotinylated complex on SA sensor tip. An excerpt:
Binding to buffer only was used for background subtraction.
Synthetic DNA constructs of KIR3DL1 (HLA-B*57:01) and KIR2DL1 (HLA-C*04:01) are cloned and expressed as Fc-fusion constructs in SF9 insect cells. HLA-B*57:01 and […] are refolded with both core and extending peptides and captured on a Strepavidin sensor chip for SPR analysis or a SA sensor tip for BLI analysis as for HLA-A*02:01. […] KIRDL-Fc fusion proteins are, therefore, used to measure the binding affinity, since their bivalency will increase overall binding affinity. […] Further, KIRDL-Fc fusion proteins are immobilized using an anti-human Fc antibody capture chip (GE Healthcare) and the binding of HLA-tetramers to the immobilized KIRDL receptors measured. This increases affinity even further (tetra-valency versus bivalency). […] The C-terminally extended peptides all disrupt KIR2DL1 binding, regardless of whether they induce the “lysine lift” or the “tyrosine swing” (FIG. 19). […] This is proof of concept that structural alterations around the F pocket of HLA alleles that form the primary binding site for KIRL abrogate receptor binding.
In general terms: In BLI a coated tip is dipped into the sample, and binding shifts an interference pattern.

For a further experiment, the target named is T1, HLA-A*02:01 (Homo sapiens, UniProt P04439, D140Y/D185E/D98H/E176V/E277Q/G131W/G231S/I119V/I121R/I166T/I218V/L300P/L318F/N151K/N90K/P208A/P217A/Q86G/Q94H/R138H/R169H/T345S).
T1 construct: HLA-A*02:01 class I heavy chain ectodomain (residues 21-274); made in house
As to the kind of experiment: Thermal denaturation assay (differential scanning fluorimetry) of HLA-A*02:01-β2m-peptide complexes. Conditions: for relative stability of HLA-peptide complex: thermal denaturation. The class given is binding. A general note: DSF heats the sample and reads unfolding from a dye or from intrinsic fluorescence.

In the next experiment the test system is HLA-A*02:01 mutants. Kind of experiment: Refolding of HLA-A*02:01 position 80 mutants with extending peptides (SEC). The class given is binding. Conditions: increase in incorrectly folded heavy chain as indicator, preliminary data.
The test system of experiment [1] is KIR3DL1 expressing YTS cells. As to the kind of experiment: HLA-B*57:01/peptide tetramer staining of KIR3DL1 transfected YTS cells (flow cytometry). Type of experiment: cell-based. Conditions: KIR3DL1 positive and negative YTS cells; 10, 50 and 100 μg/ml tetramer; 30 min on ice; preliminary study. As for the experimental part:
KIR3DL1 negative (top) and positive (bottom) YTS cells were analyzed for their staining using the indicated HLA-B/peptide tetramer. Binding of the tetramer to KIR3DL1 negative cells likely indicates binding of the tetramer to another receptor, such as 2B4 and, therefore, different KIR transfected cells, such as K562 cells will be used next.
In parallel, whether the HLA-tetramers can stain K562 cells that have been transfected with the corresponding allele-matched KIRDL receptor is tested. Without being limited to any particular theory, it is expected that HLA tetramers presenting the core peptide will stain K562 cells, while staining with tetramers presenting the C-terminally extended peptides is greatly impaired and will overlap with the isotype control. Appropriate anti KIR antibodies are used as positive control (Anti-KIR3DL1 clone DX9 and anti-KIR2DL1 clone HP-MA4 from Biolegend). […]
(In general: Flow cytometry measures light scatter and fluorescence of single cells or particles in a stream.)

Experiment [2] has as its system HLA-B*58:02 transfected 721.221 cells. As to the kind of experiment: Cytotoxicity assay using KIR3DL1 transfected YTS cells and peptide-pulsed 721.221 target cells. The class given is cell-based. Conditions: peptide 100 μM; KIR3DL1 YTS effectors; E:T 10:1; 2-4 hrs; preliminary study. As to the method:
The ability of KIR3DL1 or KIR2DL1 transfected YTS cells to kill HLA expressing 721.221 target cells is tested. Since YTS cells are devoid of any inhibitory KIR, expression of a single KIR will tolerize YTS cells against the 721.221 target cell expressing the allele-matched HLA-B*58:02 (instead of HLA-B*57:01 used for SPR and crystallography) or HLA-C*04:01. HLA-B*58:02 is identical in sequence in the binding region for KIR3DL1 and reported to bind KIR3DL1 allele. 721.221/HLA-C*04:01 cells expressing a TAP inhibitor as well as the corresponding KIR2DL1 YTS transfectants have been obtained. In these 721.221 cells, peptides have to be loaded on the empty HLA-C on the cell surface. The advantage of this system is that the degree of inhibition can be titrated using different concentration of peptides. Target cell killing is assessed using a europium-based fluorescence killing assay as described (67). In this setup, the antibody IPH2101 serves as a positive control for killing, and the efficacy of extending peptides to induce killing is compared. IPH2101 is expressed, for which the sequence is available (Patent application: PCT/US2013/063068), similar to Fc fusion proteins in insect cells. […]
Cytotoxicity assay using KIR transfected YTS cells (FIG. 21) has been established. […] Finally, fluorescence was measured in a Perkin Elmer EnVision™ time-resolved fluorometer. […]

Another experiment deals with HLA-C*03:07 (Homo sapiens, UniProt P10321, A176E/A330V/A97T/C25G/C350S/D114A/D33Y/E197K/L119I/L127V/L171W/L218V/M285V/M309V/M331V/N104K/P208H/Q277E/Q291P/R243W/R45H/S101N/S123Y/S140Y/S297R/S48A/T118I/T187L/T329A/T363A/V319A). As to the kind of experiment: Refolding of HLA-C*03:07 with peptides (SEC, SDS-PAGE, MALDI-TOF). Particulars: gel filtration. The class given is binding. The text has this: Note that A280 scale is different between the three panels.
Core peptides were chosen that have been crystallized in complex with HLA-B as well as HLA-C and designed variants containing C-terminal extensions (Table 3). […] HLA-C can be optimized while producing more HLA-B complexes for crystallization and structure determination using established methods. Crystallization is not major problem, since only HLA I-peptide complexes are crystallized and not ternary complexes containing a receptor. For HLA-A2*02:01, all 9 complexes were successfully crystallized thereby establishing a routine procedure. Structure determination is performed using molecular replacement (MR), using available reference structures.

“Also recorded” adds a separate entry of the source.

Sequence of KIR2DL1-Fc (P43626 22-245 limits assumed): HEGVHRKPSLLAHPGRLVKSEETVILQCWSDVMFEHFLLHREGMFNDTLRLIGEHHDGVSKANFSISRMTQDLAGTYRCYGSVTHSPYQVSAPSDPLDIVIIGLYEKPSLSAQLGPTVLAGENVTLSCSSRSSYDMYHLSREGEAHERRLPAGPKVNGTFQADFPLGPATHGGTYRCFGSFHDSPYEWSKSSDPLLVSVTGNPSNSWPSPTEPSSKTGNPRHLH
Experimental for HLA-A*02:01 mutants: Refolding efficiency is judged by comparing peak high (at 45 kDa) with that of the preceding oligomeric peak.
It is possible that replacing T80 with amino acids Ile, Lys, and Asn as found in other common alleles may affect refolding. […] Whether a flexible F pocket in HLA-C*03:07 can be created was tested by exchange against the amino acids from HLA-A*02:01, either Thr80 or the combination of Thr80 and Thr142 together. Other amino acids at position 80 or mutate other alleles at position 80 and 142 were introduced as necessary.

For YFDPANGKF [Y9F, reference compound], the “KIR2DL1-Fc binding to HLA-C*04:01-peptide complex” value at KIR2DL1-Fc is reported as “strong binding signal”.

Regarding GLKEGIPAL, the “melting temperature (Tm) of HLA-A*02:01-peptide complex” value in the experiment with HLA-A*02:01 (differential scanning fluorimetry, SYPRO Orange, 20-85 °C) turned out to be 63 °C. Moreover, the “relative stability of HLA-peptide complex” value with HLA-A*02:01 is on record as “less stable complex as compared to peptide GLLPELPAV; also recorded: as stable as those with longer peptides”.

Regarding GLLPELPAVGGNE, the “relative stability of HLA-peptide complex” value on HLA-A*02:01 is recorded as “as stable as”.

Consider “YLSPIASPLLDGKSLR [T. gondii C-terminally extending peptide]”, for which, at HLA-A*02:01 (extended versus equivalent nested peptide), the “difference in Tm between complex with extended peptide and with nested peptide” value was “about 7 °C”.

Take “GLKEGIPALDN [G11N, T. gondii C-terminally extending peptide]”: in the experiment with HLA-A*02:01 mutants, the “refolding efficiency of HLA-A*02:01 position 80 mutants with peptide (order of residues)” value is listed as “Ile80 (HLA-B)>Thr80 (HLA-A)>Lys80 (HLA-C*04:01)>Asn80 (HLA-C*03:07)”.

For the sequence “LSSPVTKSF [L9F, core self-peptide for HLA-B*57:01, reference compound]”, in experiment [1], the “binding of Alexa Fluor-647 HLA-B*57:01/peptide tetramer to YTS cells” value is on record as “bound to YTS cells, regardless whether KIR3DL1 was expressed or not”. Besides, the “KIR2DL1-Fc binding to allele-mismatched HLA-B*57:01-peptide complex” value on KIR2DL1-Fc is “does not bind”.

YFDPANGKFK [Y10K]: on KIR2DL1-Fc, the “KIR2DL1-Fc binding to HLA-C*04:01-peptide complex” value is “abrogated”.

With LSSPVTKSFK [L10K], the “induction of YTS NK cell killing of target cells” value in experiment [2] is given as “does not induce any killing”.

With LSSPVTKSFDGK [L12K], the “binding of Alexa Fluor-647 HLA-B*57:01/peptide tetramer to YTS cells” value in experiment [1] is on record as “bound to YTS cells, regardless whether KIR3DL1 was expressed or not”. Besides, the “induction of YTS NK cell killing of target cells” value in experiment [2] is “induce YTS NK cell killing; also recorded: appears to induce killing”.

Regarding YFDPANGKFDN [Y11N], the “KIR2DL1-Fc binding to HLA-C*04:01-peptide complex” value at KIR2DL1-Fc was “abrogated”.

GAVDPLLALD [G10D]: in the experiment with HLA-C*03:07, the “refolding of HLA-C*03:07 with peptide” value is given as “protein complex of proper size was observed”.

Consider GAVDPLLAL [G9L, reference compound], for which, in the experiment with HLA-C*03:07, the “refolding of HLA-C*03:07 with peptide” value is listed as “protein complex of proper size was observed”.
